Source: patent US8648037B2, “Macrocyclic proline derived HCV serine protease inhibitors” (priority 2010, dated 2014)

Assays:
[1] = test system: HCV genotype 1a (1a-H77) stable subgenomic replicon; assay: genotype 1a Huh-7 stable replicon assay (luciferase reporter); type: cell-based, hepatitis C virus (HCV); details: Hepatitis C virus, 5% FBS
[2] = test system: HCV genotype 1b D168V variant transient replicon; assay: genotype 1b D168V transient replicon assay; type: cell-based, hepatitis C virus (HCV); details: Hepatitis C virus
[3] = test system: HCV genotype 1a wild-type transient replicon; assay: genotype 1a wild-type transient replicon assay; type: cell-based, hepatitis C virus (HCV); details: Hepatitis C virus
[4] = test system: HCV genotype 3a wild-type stable replicon (chimeric, NS3 gene from genotype 3a isolates); assay: genotype 3a wild-type stable replicon assay; type: cell-based, hepatitis C virus (HCV); details: Hepatitis C virus
[5] = test system: HCV genotype 1a D168V variant transient replicon; assay: genotype 1a D168V transient replicon assay; type: cell-based, hepatitis C virus (HCV); details: Hepatitis C virus
[6] = test system: HCV genotype 1b R155K variant transient replicon; assay: genotype 1b R155K transient replicon assay; type: cell-based, hepatitis C virus (HCV); details: Hepatitis C virus
[7] = test system: HCV genotype 3a Q168R variant transient replicon; assay: genotype 3a Q168R transient replicon assay; type: cell-based, hepatitis C virus (HCV); details: Hepatitis C virus
[8] = test system: HCV genotype 3a A166T variant transient replicon; assay: genotype 3a A166T transient replicon assay; type: cell-based, hepatitis C virus (HCV); details: Hepatitis C virus
[9] = test system: HCV genotype 3a S138T variant transient replicon; assay: genotype 3a S138T transient replicon assay; type: cell-based, hepatitis C virus (HCV); details: Hepatitis C virus
[10] = test system: HCV genotype 1b wild-type transient replicon; assay: genotype 1b wild-type transient replicon assay; type: cell-based, hepatitis C virus (HCV); details: Hepatitis C virus
[11] = test system: HCV genotype 1b Con1 stable subgenomic replicon; assay: genotype 1b Con1 stable replicon assay (luciferase reporter); type: cell-based, hepatitis C virus (HCV); details: Hepatitis C virus
[12] = test system: HCV genotype 1a D168E variant transient replicon; assay: genotype 1a D168E transient replicon assay; type: cell-based, hepatitis C virus (HCV); details: Hepatitis C virus
[13] = test system: HCV genotype 1a R155K variant transient replicon; assay: genotype 1a R155K transient replicon assay; type: cell-based, hepatitis C virus (HCV); details: Hepatitis C virus
[14] = test system: HCV genotype 3a wild-type transient replicon; assay: genotype 3a wild-type transient replicon assay; type: cell-based, hepatitis C virus (HCV); details: Hepatitis C virus
HCV = details: after R155K (danoprevir) or R155K/D168V (vaniprevir) variants detected; cited from earlier work
HCV R155K variants = details: Bartels 2008, Lu 2004, Zhou 2007; cited from earlier work

Structure (SMILES)	EC50 [1] [nM]	EC50 [2] [nM]	EC50 [3] [nM]	EC50 [4] [nM]	EC50 [5] [nM]	EC50 [6] [nM]	EC50 [7] [nM]	EC50 [8] [nM]	EC50 [9] [nM]	EC50 [10] [nM]	EC50 [11] [nM]	EC50 [12] [nM]	EC50 [13] [nM]	EC50 [14] [nM]	viral load in patients receiving treatment (HCV)	resistance conferred by R155K variants (HCV R155K variants)
CC(C)(C)[C@@H]1NC(=O)O[C@@H]2CCC[C@H]2OC/C=C/C(F)(F)c2nc3ccccc3nc2O[C@@H]2C[C@@H](C(=O)N[C@]3(C(=O)NS(=O)(=O)C4CC4)C[C@H]3C(F)F)N(C2)C1=O [Example 2]	1 to 10	1 to 100	0.1 to 1	< 10	< 1	< 1	100 to 1000	< 100	100 to 1000	< 1	1 to 10	< 1	< 0.1	< 10	–	–
C=C[C@@H]1C[C@]1(NC(=O)[C@@H]1C[C@@H]2CN1C(=O)[C@H](C(C)(C)C)NC(=O)O[C@@H]1CCC[C@H]1OC/C=C/C(F)(F)c1nc3ccccc3nc1O2)C(=O)NS(=O)(=O)C1(C)CC1 [Example 5]	< 1	< 1	< 0.1	< 10	< 1	< 1	< 100	< 100	–	< 1	1 to 10	< 1	< 0.1	< 10	–	–
CC(C)(C)OC(=O)N[C@H]1CCCCC/C=C\[C@@H]2C[C@@]2(C(=O)NS(=O)(=O)C2CC2)NC(=O)[C@@H]2C[C@@H](OC(=O)N3Cc4cccc(F)c4C3)CN2C1=O [danoprevir]	–	–	–	–	–	–	–	–	–	–	–	–	–	–	Viral load rebound	high-level resistance
COc1ccc2c(O[C@@H]3C[C@H]4C(=O)N[C@]5(C(=O)O)C[C@H]5/C=C\CCCCC[C@H](NC(=O)OC5CCCC5)C(=O)N4C3)cc(-c3csc(NC(C)C)n3)nc2c1 [BILN 2061]	–	–	–	–	–	–	–	–	–	–	–	–	–	–	–	high-level resistance
CC[C@@H]1C[C@]1(NC(=O)[C@@H]1C[C@@H]2CN1C(=O)[C@H](C(C)(C)C)NC(=O)OCC(C)(C)CCCCc1cccc3c1CN(C3)C(=O)O2)C(=O)NS(=O)(=O)C1CC1 [vaniprevir]	–	–	–	–	–	–	–	–	–	–	–	–	–	–	viral load rebound	–
CC[C@@H]1C[C@]1(NC(=O)[C@@H]1C[C@@H]2CN1C(=O)[C@H](C(C)(C)C)NC(=O)O[C@@H]1CCC[C@H]1OC/C=C/C(F)(F)c1nc3ccccc3nc1O2)C(=O)NS(=O)(=O)C1CC1 [Example 4]	< 1	1 to 100	0.1 to 1	–	10 to 1000	< 1	100 to 1000	100 to 500	100 to 1000	< 1	1 to 10	< 1	0.1 to 1	10 to 100	–	–
CC[C@@H]1C[C@]1(NC(=O)[C@@H]1C[C@@H]2CN1C(=O)[C@H](C(C)(C)C)NC(=O)O[C@@H]1CCC[C@H]1OC/C=C/C(F)(F)c1nc3ccccc3nc1O2)C(=O)NS(=O)(=O)C1(C)CC1 [Example 8]	< 1	1 to 100	0.1 to 1	–	1 to 10	< 1	100 to 1000	100 to 500	100 to 1000	< 1	1 to 10	< 1	< 0.1	10 to 100	–	–
C=C[C@@H]1C[C@]1(NC(=O)[C@@H]1C[C@@H]2CN1C(=O)[C@H](C(C)(C)C)NC(=O)O[C@@H]1CCC[C@H]1OC/C=C/C(F)(F)c1nc3ccccc3nc1O2)C(=O)NS(=O)(=O)C1CC1 [Example 1]	< 1	< 1	0.1 to 1	< 10	1 to 10	< 1	100 to 1000	100 to 500	100 to 1000	< 1	1 to 10	< 1	0.1 to 1	10 to 100	–	–
CC(C)(C)[C@@H]1NC(=O)O[C@@H]2CCC[C@H]2OC/C=C/C(F)(F)c2nc3ccccc3nc2O[C@@H]2C[C@@H](C(=O)N[C@]3(C(=O)NS(=O)(=O)C4(C)CC4)C[C@H]3C(F)F)N(C2)C1=O [Example 6]	< 1	< 1	< 0.1	< 10	< 1	< 1	< 100	< 100	< 100	< 1	1 to 10	< 1	< 0.1	< 10	–	–
